Assay results from patent publication US20250032624A1, “SMALL MOLECULE DEGRADATION METHODS FOR TREATING ALS/FTD” (University of Florida Research Foundation, Incorporated, priority 2021, published 2025).

System: C9orf72 and transcriptome
Experiment: RNA-seq in iPSCs from healthy donors
Assay type: cell-based, human
Conditions: healthy donor iPSCs
Protocol: Total RNA integrity was confirmed by Agilent 2100 Bioanalyzer RNA nano chip, and the quantity was measured by Qubit 2.0 Fluorometer (Invitrogen). The library preparation was performed using NEBNext Ultra II Directional RNA kit (NEB, E7760) in combination with NEBNext rRNA depletion module (NEB, E6310) and RNA fragmentation module (NEB, E6150S), following manufacturer's recommendations. Briefly, a total of 200 ng RNA was first processed with depleted of ribosomal RNA, and then randomly fragmented to achieve range between 150 to 300 nucleotides. The fragmented RNAs were random primed for the first-strand synthesis, and the second strand was synthesized with dUTPs. The strand information is thus preserved by using USER enzyme (Uracil-specific excision reagent). The cDNA was PCR amplified and pooled equimolar to load onto the NextSeq 500 v2.5 flow cell and sequenced with 2×40 bp paired-end method. The output fastq files were aligned using STAR 3^5. The read counts of specific regions were extracted using samtools.^36 The global differential gene expression analysis was performed using featureCounts and Deseq2.^37,38

## CCOC(=O)C1=C(Nc2ccccc2)S/C(=C\c2ccc(OCCOCCOCCOCCNC(=O)CCCOc3ccc4c(c3)c3cc5c(C(=O)N[C@H](C)CN(C)C)nccc5c(C)c3n4C)c(O)c2)C1=O [ALS Compound Formula I]
  C9orf72 read count: no effect
  intron 1:exon 2 ratio: no effect
  off-target effects transcriptome-wide: minimal off-target effects
